# In patent publication US11066438B2, “Squalamine solid forms and methods of making the same” (Enterin, Inc., priority 2017, dated 2021):
# Entries after “also recorded” stand apart in the source; their conditions may differ. Like-named read-outs stand apart in the source and are kept apart here.
# Legend:
# HIV = settings: cited from earlier work
# [1] = cited from earlier work
# [2] = cited from earlier work; remark: listed apart in the source
# [3] = Critical water activity for relative form stability: ethanol slurries at 25° C., XRPD; type: physicochemical; settings: for Final Form by XRPD: ethanol slurry 25° C.; for Water activity levels in ethanol at which the form is the stable form: EtOH slurries, 25° C.
# Description: For robust isolation of desired squalamine phosphate crystal form, critical water activity in EtOH has been investigated in terms of the relative stability of ENT-01 Forms 1 and 2. The procedure is detailed below.
# Nine samples of each Form 1 and Form 2 separately (˜25 mg each) were prepared in scintillation vials. To each vial ½ mL of ethanol with water activity levels from 0.1 to 0.9 were added and the vials were let to condition in a shaker at 25° C. for 2-3 days. Similarly, six mixed samples of Form 1 and 2 were prepared and slurry conditioned at water activity levels of 0.1 to 0.6 in ethanol at 25° C. The wet cakes of each slurry were analyzed by XRPD.
# The slurries post conditioning were analyzed by XRPD. […] The XRPD pattern matches that of Form 2.
# [4] = Form stability: low (27% RH) and high (70% RH) humidity conditioning, XRPD; type: physicochemical; settings: 21° C.
# Description: One sample each of Form 1 and Form 2 on XRPD plates (˜10 mg each) were exposed to 21° C. 27% RH and 21° C. 70% RH for one and two days, respectively. The four samples were analyzed by XRPD (FIG. 12 and FIG. 13).
# [5] = Form stability: dry ethanol slurry at 30° C., XRPD; type: physicochemical; settings: Slurry in dry ethanol at 30° C., overnight
# Description: A small portion of Form 1 (˜50 mg) and a small portion of Form 2 (˜50 mg) were prepared in scintillation vials and equal volumes of sieve dried ethanol was added, the slurries were conditioned overnight in a shaker at 30° C. The wet slurries were analyzed by XRPD (FIG. 14).
# [6] = Form stability: water-acetone and water-ethanol wash, then 40° C. drying, XRPD; type: physicochemical; settings: overnight
# Description: Two small portions of Form 2 (˜100 mg each) were prepared in sample vials. The first one was slurried in water briefly followed by filtration and acetone wash. The second one was slurried in water briefly, filtered and washed with ethanol. Both samples were then oven dried at 40° C. overnight and analyzed by XRPD (FIG. 11).
# [7] = dose levels 6 to 700 mg/m(2)/day
# [8] = patients, 500 mg/m(2)/day, 5-day continuous i.v. infusion
molecule,measurement,setting,value
"Nc1nc(=O)n([C@@H]2CS[C@H](CO)O2)cc1F [COVIRACIL, emtricitabine]",greater activity in vitro than lamivudine (3TC),HIV; in vitro,3-to 10 fold
CC[C@H]1C(=O)Nc2ccc(F)cc2N1C(=O)OC(C)C [GW420867X],greater activity than HBY097,HIV,25 fold
C[C@H](Sc1nc(N)cc(Cl)n1)c1cc2ccoc2cn1 [PNU-142721],greater activity than its predecessor delavirdine,HIV,20- to 50 fold
"CC(C)[C@@H](CC[C@@H](C)[C@H]1CC[C@H]2[C@@H]3[C@H](O)C[C@H]4C[C@@H](NCCCNCCCCN)CC[C@]4(C)[C@H]3CC[C@]12C)OS(=O)(=O)O [squalamine, 3 beta-N-1-(N-[3-(4-aminobutyl)]-1,3-diaminopropane)-7 alpha,24 zeta-dihydroxy-5 alpha-cholestane 24-sulfate]",dose-limiting toxicity,[1]; 500 mg/m(2)/day,one of seven patients experienced dose-limiting grade 4 hyperbilirubinemia and grade 3 neurosensory changes
same,tolerability,[1]; 500 mg/m(2)/day,well tolerated
same,dose-limiting toxicity,[1]; 700 mg/m(2)/day,two of three patients developed grade 4 hyperbilirubinemia
same,pharmacokinetics versus dose,[1]; [7],dose-proportional
same,principal dose-limiting toxicity,[1]; [7],Hepatotoxicity
same,"clearance, mean (percentage coefficient of variation)",[1]; [8],2.67 liters/h/m(2)
same,"half-life, mean (percentage coefficient of variation)",[1]; [8],9.46 h
same,"steady-state concentrations, mean (percentage coefficient of variation)",[1]; [8],20.08 micro g/ml
same,"volume of distribution, mean (percentage coefficient of variation)",[1]; [8],36.84 liters/m(2)
same,"dose-limiting toxicity (grade 3/4 arthralgia, myalgia, neutropenia)",[2]; 400 mg/m(2)/day with paclitaxel and carboplatin,two of three patients
same,dose selected as the Phase II dose on the basis of safety and toxicity,[2]; combination regimen with paclitaxel and carboplatin,300 mg/m(2)/day
same,tolerability of the combination,"[2]; continuously daily for 5 days, with paclitaxel and carboplatin on day 1",well tolerated
squalamine phosphate [Form 1 + 2],Final Form by XRPD,"[3]; mixed forms, Aw 0.099, water volume fraction 0.013, seven days",Form 1
same,Final Form by XRPD,"[3]; mixed forms, Aw 0.205, water volume fraction 0.030, seven days",Form 1
same,Final Form by XRPD,"[3]; mixed forms, Aw 0.298, water volume fraction 0.048, seven days",Form 1
same,Final Form by XRPD,"[3]; mixed forms, Aw 0.398, water volume fraction 0.073, seven days",Form 1
same,Final Form by XRPD,"[3]; mixed forms, Aw 0.502, water volume fraction 0.104, seven days",Form 1
same,Final Form by XRPD,"[3]; mixed forms, Aw 0.605 (0.6), water volume fraction 0.145, seven days",Form 2
same,Final Form by XRPD,"[3]; mixed forms, Aw 0.605 (0.6), water volume fraction 0.145, seven days, listed as Form 1 and 2",converted to Form 2
same,"Form after slurry conditioning, by XRPD","[3]; mixed slurries in Ethanol at water activity levels of 0.1 to 0.5 Aw at 25° C., seven days",converted to Form 1
squalamine phosphate [Form 1 + Form 2],Final Form by XRPD,"[3]; Aw 0.000, water volume fraction 0.000, three days",Form 1
same,Final Form by XRPD,"[3]; Aw 0.099, water volume fraction 0.013, three days",Form 1
same,Final Form by XRPD,"[3]; Aw 0.205, water volume fraction 0.030, three days",Form 1
same,Final Form by XRPD,"[3]; Aw 0.298, water volume fraction 0.048, three days",Form 1
same,Final Form by XRPD,"[3]; Aw 0.398, water volume fraction 0.073, three days",Form 1 + Form 2
same,Final Form by XRPD,"[3]; Aw 0.502, water volume fraction 0.104, three days",Form 1 + Form 2
same,Final Form by XRPD,"[3]; Aw 0.700, water volume fraction 0.198, three days",Form 2
same,Final Form by XRPD,"[3]; Aw 0.802, water volume fraction 0.296, three days",Form 2
same,Final Form by XRPD,"[3]; Aw 0.900, water volume fraction 0.550, three days",Form 2
squalamine phosphate [Form 1],Final Form by XRPD,"[4]; 27% RH, overnight (one day)",remained the same form; also recorded: Form 1
same,Final Form by XRPD,"[4]; 70% RH, two nights",remained the same as their respective starting forms; also recorded: Form 1
same,Final Form by XRPD,[5],Form 1
same,Water activity levels in ethanol at which the form is the stable form,[3],≤ 0.5 Aw
same,"Form after slurry conditioning, by XRPD","[3]; slurries in Ethanol at water activity levels of 0.1 to 0.6 at 25° C., three days",stayed the same Form
same,"Form after slurry conditioning, by XRPD","[3]; slurries in Ethanol at water activity levels of 0.7 to 0.9 at 25° C., three days",converted to Form 2
squalamine phosphate [Form 2],Final Form by XRPD,[6]; Water-acetone wash + 40° C. dry,generates Form 1; also recorded: converted to Form 1
same,Final Form by XRPD,[6]; Water-ethanol wash + 40° C. dry,generates Form 1; also recorded: converted to Form 1
same,Final Form by XRPD,"[4]; 27% RH, overnight (one day)",Form 1 was also obtained; also recorded: converted to Form 1
same,Final Form by XRPD,"[4]; 70% RH, two nights",remained the same as their respective starting forms; also recorded: Form 2
same,Final Form by XRPD,[5],converted to Form 1
same,Water activity levels in ethanol at which the form is the stable form,[3],≥ 0.6 Aw
same,"Form after slurry conditioning, by XRPD","[3]; slurries in Ethanol at water activity levels of 0.1 to 0.3 at 25° C., three days",converted to Form 1
same,"Form after slurry conditioning, by XRPD","[3]; slurries in Ethanol at water activity levels of 0.4 to 0.9 at 25° C., three days",stayed the same Form 2
